Reference: PubChem BioAssay AID256 (DTP/NCI, 2004)
Several values for one entry are separate records, joined by “and”; a condition that tells them apart may be missing. Identical values can stand only once. Inconclusive results and toxic doses are left out. Rule for the calls: active = survival T/C of 150% or more; inactive = T/C below 125% in these data.

System: CD2F1 mice, L1210 leukemia ip, survival T/C
Assay: NCI In Vivo Anticancer Drug Screen. Data for tumor model L1210 Leukemia (intraperitoneal) in CD2F1 (CDF1) mice
Conditions: higher = longer survival
Summary of the method: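 Mice carrying a transplanted tumor received test compound or vehicle alone. The value is the measurement in the treated group divided by that in the vehicle-treated control group.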

[1] = endpoint: mean survival time, dose: 100.0 mg/kg/injection, schedule: Q04DX002 (ip), vehicle: saline with Tween-80
[2] = endpoint: mean survival time, dose: 200.0 mg/kg/injection, schedule: Q04DX002 (ip), vehicle: saline with Tween-80
[3] = endpoint: mean survival time, dose: 400.0 mg/kg/injection, schedule: Q04DX002 (ip), vehicle: saline with Tween-80
[4] = endpoint: mean survival time, dose: 100.0 mg/kg/injection, schedule: Q01DX009 (ip), vehicle: saline with Tween-80
[5] = endpoint: mean survival time, dose: 100.0 mg/kg/injection, schedule: Q04DX003 (ip), vehicle: saline with Tween-80
[6] = endpoint: mean survival time, dose: 200.0 mg/kg/injection, schedule: Q01DX009 (ip), vehicle: saline with Tween-80
[7] = endpoint: mean survival time, dose: 200.0 mg/kg/injection, schedule: Q04DX003 (ip), vehicle: saline with Tween-80
[8] = endpoint: mean survival time, dose: 400.0 mg/kg/injection, schedule: Q01DX009 (ip), vehicle: saline with Tween-80
[9] = endpoint: mean survival time, dose: 400.0 mg/kg/injection, schedule: Q04DX003 (ip), vehicle: saline with Tween-80
[10] = endpoint: mean survival time, dose: 50.0 mg/kg/injection, schedule: Q01DX009 (ip), vehicle: Klucel (hydroxypropylcellulose) (HPC)
[11] = endpoint: mean survival time, dose: 100.0 mg/kg/injection, schedule: Q01DX009 (ip), vehicle: Klucel (hydroxypropylcellulose) (HPC)
[12] = endpoint: mean survival time, dose: 200.0 mg/kg/injection, schedule: Q01DX009 (ip), vehicle: Klucel (hydroxypropylcellulose) (HPC)
[13] = endpoint: mean survival time, dose: 100.0 mg/kg/injection, schedule: Q01DX001 (ip), vehicle: saline with Tween-80
[14] = endpoint: mean survival time, dose: 200.0 mg/kg/injection, schedule: Q01DX001 (ip), vehicle: saline with Tween-80
[15] = endpoint: mean survival time, dose: 400.0 mg/kg/injection, schedule: Q01DX001 (ip), vehicle: saline with Tween-80

Measured: T/C

C1CCC(NC2CCCCC2)CC1
inactive: endpoint: mean survival time, dose: 25.0 mg/kg/injection, schedule: Q01DX001 (ip), vehicle: saline with Tween-80 104 % of control | endpoint: mean survival time, dose: 50.0 mg/kg/injection, schedule: Q01DX001 (ip), vehicle: saline with Tween-80 101 % of control | endpoint: median survival time, dose: 25.0 mg/kg/injection, schedule: Q01DX009 (ip), vehicle: saline 94 % of control | endpoint: median survival time, dose: 50.0 mg/kg/injection, schedule: Q01DX009 (ip), vehicle: saline 100 % of control | endpoint: median survival time, dose: 100.0 mg/kg/injection, schedule: Q01DX009 (ip), vehicle: saline 94 % of control | endpoint: median survival time, dose: 200.0 mg/kg/injection, schedule: Q01DX009 (ip), vehicle: saline 97 % of control | endpoint: median survival time, dose: 400.0 mg/kg/injection, schedule: Q01DX009 (ip), vehicle: saline 100 % of control

Cc1ccc(S(=O)(=O)N2CCCCC2)cc1
inactive: endpoint: mean survival time, dose: 50.0 mg/kg/injection, schedule: Q01DX009 (ip), vehicle: saline 91 % of control | endpoint: mean survival time, dose: 100.0 mg/kg/injection, schedule: Q01DX009 (ip), vehicle: saline 93 % of control | endpoint: mean survival time, dose: 200.0 mg/kg/injection, schedule: Q01DX009 (ip), vehicle: saline 93 % of control

Cc1cc(=O)c2c(ccc3[nH]c(-c4ccco4)nc32)[nH]1
inactive: [1] 95 % of control | [2] 102 % of control | [3] 91 % of control

CC[NH-].[Cl][Pt+2][Cl].[NH2-]
inactive: endpoint: mean survival time, dose: 1.56 mg/kg/injection, schedule: Q04DX003 (ip), vehicle: water 118 % of control | endpoint: mean survival time, dose: 3.13 mg/kg/injection, schedule: Q04DX003 (ip), vehicle: distilled water + Tween-80 119 % of control | endpoint: mean survival time, dose: 6.25 mg/kg/injection, schedule: Q04DX003 (ip), vehicle: water 124 % of control | endpoint: mean survival time, dose: 25.0 mg/kg/injection, schedule: Q04DX003 (ip), vehicle: distilled water + Tween-80 98 % of control

CCOC(=O)C(C(=O)c1ccccc1)C(c1ccccc1)C(C(=O)OCC)C(=O)c1ccccc1 (configuration not stated)
inactive: [4] 94 % of control | [5] 93 % of control | [6] 94 % of control | [7] 90 % of control | [8] 100 % of control | [9] 98 % of control

CCCCC(O)CCCCCCCCCC(=O)O (configuration not stated)
inactive: [5] 97 % of control | [7] 101 % of control

CC(=O)CC(C)=O
inactive: endpoint: mean survival time, dose: 100.0 mg/kg/injection, schedule: Q04DX003 (ip), vehicle: saline 103 % of control | endpoint: mean survival time, dose: 200.0 mg/kg/injection, schedule: Q04DX003 (ip), vehicle: saline 94 % of control | endpoint: mean survival time, dose: 400.0 mg/kg/injection, schedule: Q04DX003 (ip), vehicle: saline 100 % of control

CCOC(=O)N(N=O)c1ccc2c(c1)C(=O)c1ccccc1-2
inactive: endpoint: mean survival time, dose: 100.0 mg/kg/injection, schedule: Q01DX001 (ip), vehicle: carboxymethylcellulose (CMC) 103 % of control | endpoint: mean survival time, dose: 200.0 mg/kg/injection, schedule: Q01DX001 (ip), vehicle: carboxymethylcellulose (CMC) 97 % of control | endpoint: mean survival time, dose: 400.0 mg/kg/injection, schedule: Q01DX001 (ip), vehicle: carboxymethylcellulose (CMC) 94 % of control

[S-]c1n[n+](-c2ccccc2)c(-c2ccccc2)s1
inactive: endpoint: mean survival time, dose: 75.0 mg/kg/injection, schedule: Q01DX001 (ip), vehicle: saline with Tween-80 95 % of control | endpoint: mean survival time, dose: 150.0 mg/kg/injection, schedule: Q01DX001 (ip), vehicle: saline with Tween-80 96 % of control | endpoint: mean survival time, dose: 300.0 mg/kg/injection, schedule: Q01DX001 (ip), vehicle: saline with Tween-80 102 % of control

O=C(Nc1ccc2c3c(cccc13)CC2)c1cccc([N+](=O)[O-])c1
inactive: [4] 94 % of control | [6] 95 % of control | [8] 97 % of control

O=C(O)CCCC(=O)c1ccccc1
inactive: [10] 91 % of control | [11] 91 % of control | [12] 95 % of control

Cc1ccc([N+](=O)[O-])cc1NC(=O)Nc1ccon1
inactive: [10] 108 % of control | [11] 96 % of control | [12] 98 % of control

CNCC(O)c1ccc(O)c(O)c1.[Pt].c1ccc([PH+](c2ccccc2)c2ccccc2)cc1.c1ccc([PH+](c2ccccc2)c2ccccc2)cc1
inactive: endpoint: median survival time, dose: 10.0 mg/kg/injection, schedule: Q04DX003 (ip), vehicle: saline with Tween-80 94 % of control | endpoint: median survival time, dose: 20.0 mg/kg/injection, schedule: Q04DX003 (ip), vehicle: saline with Tween-80 108 % of control | endpoint: median survival time, dose: 40.0 mg/kg/injection, schedule: Q04DX003 (ip), vehicle: saline with Tween-80 109 % of control | endpoint: median survival time, dose: 50.0 mg/kg/injection, schedule: Q04DX003 (ip), vehicle: saline with Tween-80 102 % of control | endpoint: median survival time, dose: 80.0 mg/kg/injection, schedule: Q04DX003 (ip), vehicle: saline with Tween-80 105 % of control | endpoint: median survival time, dose: 100.0 mg/kg/injection, schedule: Q04DX003 (ip), vehicle: saline with Tween-80 101 % of control

CCOC(=O)C(C(C)=O)C(=O)c1ccc([N+](=O)[O-])cc1 (configuration not stated)
inactive: [4] 102 % of control | [5] 100 % of control | [6] 101 % of control | [7] 102 % of control | [8] 98 % of control | [9] 100 % of control

Cc1cc(=O)n2c3c(c4c(cc13)c(CN(C)C)cc(=O)n4C)OC2
inactive: endpoint: median survival time, dose: 6.0 mg/kg/injection, schedule: Q01DX009 (ip), vehicle: saline with Tween-80 110 % of control | endpoint: median survival time, dose: 12.0 mg/kg/injection, schedule: Q01DX009 (ip), vehicle: saline with Tween-80 101 % of control | endpoint: median survival time, dose: 12.5 mg/kg/injection, schedule: Q01DX009 (ip), vehicle: saline with Tween-80 100 % of control | endpoint: median survival time, dose: 25.0 mg/kg/injection, schedule: Q01DX009 (ip), vehicle: saline with Tween-80 119 % of control and 110 % of control | endpoint: median survival time, dose: 100.0 mg/kg/injection, schedule: Q01DX009 (ip), vehicle: saline with Tween-80 97 % of control

CC/C(=N/O)c1ccccc1
inactive: [4] 98 % of control | [6] 92 % of control | [8] 103 % of control

NC1=CC(=O)c2ccccc2C1=O
inactive: endpoint: mean survival time, dose: 50.0 mg/kg/injection, schedule: Q01DX009 (ip), vehicle: saline with Tween-80 96 % of control | [4] 100 % of control

COc1cc(NCCCCCCCNC(C)C)c2nccc(C)c2c1
inactive: endpoint: median survival time, dose: 3.12 mg/kg/injection, schedule: Q01DX009 (ip), vehicle: saline 98 % of control | endpoint: median survival time, dose: 6.25 mg/kg/injection, schedule: Q01DX009 (ip), vehicle: saline 102 % of control | endpoint: median survival time, dose: 12.5 mg/kg/injection, schedule: Q01DX009 (ip), vehicle: saline 97 % of control

C1=CSC(=C2SC=CS2)S1
inactive: [5] 95 % of control | [7] 102 % of control

CCOc1nc(-c2ccccc2)nc(N)c1Cl
inactive: [1] 98 % of control | [2] 98 % of control | [3] 98 % of control

O=c1cc(-c2ccccc2)[nH]c(-c2ccccc2)c1
inactive: [13] 100 % of control | [4] 89 % of control | [5] 89 % of control | [14] 88 % of control | [6] 88 % of control | [7] 93 % of control | [15] 89 % of control | [9] 86 % of control

CC1CN=C(c2ccc(NC(=O)Nc3ccc(NC(=O)c4ccc(C5=NCC(C)N5)cc4)cc3)cc2)N1 (configuration not stated)
inactive: endpoint: mean survival time, dose: 26.0 mg/kg/injection, schedule: Q01DX Z (ip), vehicle: water 90 % of control

CCOP(=O)(OCC)C(C(C)C)N(C)C (configuration not stated)
inactive: [13] 103 % of control | [14] 101 % of control | [15] 98 % of control

CC(=O)NC(Cc1ccccc1)c1ccccc1 (configuration not stated)
inactive: [13] 112 % of control | [14] 105 % of control | [15] 86 % of control

COc1cc2c(oc(=O)c3cc(C)cc(OC)c32)c2c(C3OC(C)C(O)C(C)(O)C3O)ccc(O)c12 (configuration not stated)
inactive: endpoint: median survival time, dose: 3.12 mg/kg/injection, schedule: Q01DX005 (ip), vehicle: DMSO 109 % of control and 110 % of control | endpoint: median survival time, dose: 6.25 mg/kg/injection, schedule: Q01DX005 (ip), vehicle: DMSO 108 % of control and 110 % of control | endpoint: median survival time, dose: 12.5 mg/kg/injection, schedule: Q01DX005 (ip), vehicle: DMSO 121 % of control and 103 % of control and 109 % of control | endpoint: median survival time, dose: 25.0 mg/kg/injection, schedule: Q01DX005 (ip), vehicle: DMSO 113 % of control and 118 % of control and 109 % of control | endpoint: median survival time, dose: 50.0 mg/kg/injection, schedule: Q01DX005 (ip), vehicle: DMSO 116 % of control and 112 % of control | endpoint: median survival time, dose: 100.0 mg/kg/injection, schedule: Q01DX005 (ip), vehicle: DMSO 121 % of control

CN(Cc1ccc[n+](Cc2ccc(S(=O)(=O)F)cc2)c1)C(=O)COc1ccc(Cl)c(Cl)c1
inactive: [5] 98 % of control | [7] 96 % of control

C=C(C)COc1cc(C=NCCCC)c(C)cc1C
inactive: [4] 98 % of control | [6] 94 % of control | [8] 96 % of control

COC(=O)C1(C)CCCC2(C)C1CCC13C=C(C(C)C)C(CC1C(=O)O)CC23 (configuration not stated)
inactive: [5] 97 % of control | [7] 101 % of control | [9] 93 % of control
